Earlier results, collected in patent US20080311191A1, “Multi-Layer Tablets and Bioadhesive Dosage Forms” (priority 2004, published 2008).
Read-outs that look alike come from different tables or passages of the source.

Experiments:
[1] = not given; remark: listed apart in the source

water solubility	GI permeability [1]	water solubility [1]	solubility in water at pH<3.5 ([1]; pH<3.5)	SMILES
moderate				Nc1nc2c(ncn2COCCO)c(=O)[nH]1 [Acyclovir, acyclovir]
	good	negligible	slightly soluble	CCC(C)n1ncn(-c2ccc(N3CCN(c4ccc(OCC5COC(Cn6cncn6)(c6ccc(Cl)cc6Cl)O5)cc4)CC3)cc2)c1=O (stereo not shown) [Itraconazole, itraconazole]
